# Entries after “also recorded” stand apart in the source; their conditions may differ.
# How the values were obtained:
# Type in all cases: biochemical
# [1] = biological target: T1, human pancreatic α-amylase (Homo sapiens, UniProt P04746); test: α-Amylase inhibition assay
# T1 sequence (P04746 16-511): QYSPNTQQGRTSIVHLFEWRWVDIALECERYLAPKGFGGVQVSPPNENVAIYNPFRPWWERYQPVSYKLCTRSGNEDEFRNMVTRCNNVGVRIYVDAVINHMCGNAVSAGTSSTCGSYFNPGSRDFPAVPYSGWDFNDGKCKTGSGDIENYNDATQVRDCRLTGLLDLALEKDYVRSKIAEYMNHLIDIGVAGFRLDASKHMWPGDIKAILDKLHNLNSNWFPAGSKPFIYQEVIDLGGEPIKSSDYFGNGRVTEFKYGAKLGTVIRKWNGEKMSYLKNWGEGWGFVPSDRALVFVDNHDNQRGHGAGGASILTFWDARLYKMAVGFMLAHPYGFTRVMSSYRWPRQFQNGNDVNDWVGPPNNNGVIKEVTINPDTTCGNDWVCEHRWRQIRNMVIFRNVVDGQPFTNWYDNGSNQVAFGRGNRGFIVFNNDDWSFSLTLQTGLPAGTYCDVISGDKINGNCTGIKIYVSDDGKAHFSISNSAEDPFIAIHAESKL
# [2] = biological target: human lysosomal acid-α-glucosidase (Homo sapiens, UniProt P10253); test: α-Glucosidase inhibition assay
# [3] = biological target: T2, α-amylase (Homo sapiens, UniProt P04746); test: Enzyme kinetic study, α-amylase; conditions: for Inhibition mode towards α-amylase: Lineweaver-Burk plot
# T2 sequence (P04746 16-511): T1 sequence (P04746 16-511)
# [4] = biological target: α-glucosidase (Homo sapiens, UniProt P10253); test: Enzyme kinetic study, α-glucosidase; conditions: for Inhibition mode towards α-glucosidase: Lineweaver-Burk plot
IC50 [1] [µM],IC50 [2] [µM],SMILES,other results
135 ± 6.73,–,"Cc1ccc2c(c1)/C(=N/NC(=O)COc1c(C)cccc1C[C@@H]1C[C@H]3C(=O)N(C)[C@@]4(C[C@H](C)CC[C@H]4C(C)C)N3O1)C(=O)N2 [5g, 2-(2-(((1S,2S,2′R,3a′S,5R)-2-isopropyl-5,5′-dimethyl-4′-oxotetrahydro-2′H-spiro[cyclohexane-1,6′-imidazo [1,5-b]isoxazol]-2′-yl)methyl)-6-methylphenoxy)-N'-((Z)-5-methyl-2-oxoindolin-3-ylidene)acetohydrazide]",–
194 ± 9.54,209 ± 10.4,"COc1cc(C[C@@H]2C[C@H]3C(=O)N(C)[C@@]4(C[C@H](C)CC[C@H]4C(C)C)N3O2)ccc1OCC(=O)N/N=C1\C(=O)Nc2c(Cl)cccc21 [5a, N'-((Z)-7-chloro-2-oxoindolin-3-ylidene)-2-(4-(((1S,2S,2′R,3a′S,5R)-2-isopropyl-5,5′-dimethyl-4′-oxotetrahydro-2′H-spiro[cyclohexane-1,6′-imidazo [1,5-b]isoxazol]-2′-yl)methyl)-2-methoxyphenoxy)acetohydrazide]",Factor by which α-amylase activity is impaired relative to 5d ([1]; 5a versus 5d): 6.3; Factor by which α-glucosidase activity is impaired relative to 5d ([2]; 5a versus 5d): 3.2
92.4 ± 4.05,172 ± 8.44,"Cc1cccc(C[C@@H]2C[C@H]3C(=O)N(C)[C@@]4(C[C@H](C)CC[C@H]4C(C)C)N3O2)c1OCC(=O)N/N=C1\C(=O)Nc2cc(Br)ccc21 [5e, N'-((Z)-6-bromo-2-oxoindolin-3-ylidene)-2-(2-(((1S,2S,2′R,3a′S,5R)-2-isopropyl-5,5′-dimethyl-4′-oxotetrahydro-2′H-spiro[cyclohexane-1,6′-imidazo [1,5-b]isoxazol]-2′-yl)methyl)-6-methylphenoxy)acetohydrazide]",–
30.4 ± 1.52,65.1 ± 3.11,"Cc1cccc(C[C@@H]2C[C@H]3C(=O)N(C)[C@@]4(C[C@H](C)CC[C@H]4C(C)C)N3O2)c1OCC(=O)N/N=C1\C(=O)Nc2c(Cl)cccc21 [5d, N'-((Z)-7-chloro-2-oxoindolin-3-ylidene)-2-(2-(((1S,2S,2′R,3a′S,5R)-2-isopropyl-5,5′-dimethyl-4′-oxotetrahydro-2′H-spiro[cyclohexane-1,6′-imidazo [1,5-b]isoxazol]-2′-yl)methyl)-6-methylphenoxy)acetohydrazide]",Ki [3]: 27.5 µM; Inhibition mode towards α-amylase [3]: competitive inhibition; also recorded: competitive inhibitors; Ki [4]: 56.1 µM; Inhibition mode towards α-glucosidase [4]: competitive inhibitors; also recorded: compete with the substrate
68 ± 3.4,152 ± 7.56,"COc1cc(C[C@@H]2C[C@H]3C(=O)N(C)[C@@]4(C[C@H](C)CC[C@H]4C(C)C)N3O2)ccc1OCC(=O)N/N=C1\C(=O)Nc2cc(Br)ccc21 [5c, N'-((Z)-6-bromo-2-oxoindolin-3-ylidene)-2-(4-(((1S,2S,2′R,3a′S,5R)-2-isopropyl-5,5′-dimethyl-4′-oxotetrahydro-2′H-spiro[cyclohexane-1,6′-imidazo [1,5-b]isoxazol]-2′-yl)methyl)-2-methoxyphenoxy)acetohydrazide]",–
–,–,"C[C@H]1O[C@H](O[C@H]2[C@H](O)[C@@H](O)[C@@H](O[C@H]3[C@H](O)[C@@H](O)C(O)O[C@@H]3CO)O[C@@H]2CO)[C@H](O)[C@@H](O)[C@@H]1N[C@H]1C=C(CO)[C@@H](O)[C@H](O)[C@H]1O (stereo partly shown) [Acarbose, reference compound]",Inhibition mode towards α-amylase [3]: competitive inhibition; also recorded: competitive inhibitors; Inhibition mode towards α-glucosidase [4]: competitive inhibitors; also recorded: compete with the substrate
55.7 ± 2.78,107 ± 5.31,"Cc1cccc(C[C@@H]2C[C@H]3C(=O)N(C)[C@@]4(C[C@H](C)CC[C@H]4C(C)C)N3O2)c1OCC(=O)N/N=C1\C(=O)Nc2ccc(F)cc21 [5f, N'-((Z)-5-fluoro-2-oxoindolin-3-ylidene)-2-(2-(((1S,2S,2′R,3a′S,5R)-2-isopropyl-5,5′-dimethyl-4′-oxotetrahydro-2′H-spiro[cyclohexane-1,6′-imidazo [1,5-b]isoxazol]-2′-yl)methyl)-6-methylphenoxy)acetohydrazide]",–
174 ± 8.71,–,"COc1cc(C[C@@H]2C[C@H]3C(=O)N(C)[C@@]4(C[C@H](C)CC[C@H]4C(C)C)N3O2)ccc1OCC(=O)N/N=C1\C(=O)Nc2ccc(F)cc21 [5b, N'-((Z)-5-fluoro-2-oxoindolin-3-ylidene)-2-(4-(((1S,2S,2′R,3a′S,5R)-2-isopropyl-5,5′-dimethyl-4′-oxotetrahydro-2′H-spiro[cyclohexane-1,6′-imidazo [1,5-b]isoxazol]-2′-yl)methyl)-2-methoxyphenoxy)acetohydrazide]",–
46.6 ± 2.3,85.2 ± 4.25,"Cc1cccc(C[C@@H]2C[C@H]3C(=O)N(C)[C@@]4(C[C@H](C)CC[C@H]4C(C)C)N3O2)c1OCC(=O)N/N=C1\C(=O)Nc2c(F)cccc21 [5h, N'-((Z)-7-fluoro-2-oxoindolin-3-ylidene)-2-(2-(((1S,2S,2′R,3a′S,5R)-2-isopropyl-5,5′-dimethyl-4′-oxotetrahydro-2′H-spiro[cyclohexane-1,6′-imidazo [1,5-b]isoxazol]-2′-yl)methyl)-6-methylphenoxy)acetohydrazide]",–
